Experimental data published in patent US10829466B2, “Stilbene derivative and preparation method thereof” (BEIJING INSTITUTE OF TECHNOLOGY, priority 2015, dated 2020).
Entries after “also recorded” stand apart in the source; their conditions may differ.

Assays:
[1] = tested on: neurogenesis in rat hippocampus; assay: Detection of neurogenesis in rat hippocampus by BrdU labeling (DAB immunohistochemistry); format: in vivo; conditions: for BrdU labeling result: SD male rats, intraperitoneal injection 28 days, 4 mg/Kg, compared with the control group; for neurogenesis activity (in words): under the test conditions of the embodiments, same dose; for activity of proliferation promotion (BrdU positive) at low dose: low dose 0.5 mg/Kg, compared with blank sample (V), FIG. 10
Excerpt: Example 36: Detection of Neurogenesis in Rat Hippocampus by BrdU (5-Bromo-2-deoxy Uridine, 5-bromodeoxyuridine) Labeling
Experimental animals: 10-week-old SD male rats having a body weight of about 300 g are purchased. The rats are used in experiments one week after being adapted to the environment in an animal room. Experimental groups: control group, drug group. 2-3 rats per group. Experimental reagent: injection oil is used to dissolve a compound to be tested. Rates in the control group are injected with the same dose of dissolving oil.
Test method: intraperitoneal injection is carried out 28 days at the injection dose of 0.5 ml-1 ml each time. Dose: 4 mg/Kg.
1) marker injection: BrdU (dissolved in sterile saline solution at a concentration of 10 mg/mL) solution is injected intraperitoneally into rats. (For rats with different body weights, the injection dose of BrdU is 50 mg·Kg^−1, injection is carried out twice every 2 hour; the intraperitoneal injection 24 hours before anesthesia ends.
2) Anesthesia: Anesthesia is performed by intraperitoneal injection of sodium pentobarbital solution into rats. (For rats with different body weights, the injection dose of sodium pentobarbital is usually 70 mg·Kg^−1.)
3) Cardiac perfusion: cardiac perfusion with normal saline is performed according to a general method.
4) Taking of brain tissues: The heads of the rats are separated from the bodies with surgical forceps and scissors, and then the muscles and membrane tissues at the top of the skulls are removed and brains are then gently peeled from the skulls. The separated brains are soaked in 4% paraformaldehyde for 24-48 hours.
5) Dehydration of brain tissues: the fixed tissues are soaked with a 20% sucrose PBS solution for more than 72 hours, and then the brain tissues are soaked with a 30% sucrose PBS solution for more than 72 hours.
6) Frozen section: the brain tissues are cut into […] thick sections by a general coronal section procedure.
7) DAB immunohistochemistry step: DNA denaturation is carried out and the sections are transferred to a 24-well plate (pH 7.4) perfused with 0.1 M PBS. The brain sections are incubated with 1% H2O2 for 30 minutes to remove […]; the sections are then treated with a 2M HCl solution for 30 minutes at room temperature to denature them. After completion of the denaturation, the brain sections are immersed in a 0.1 M sodium borate (pH 8.5) solution for 5 minutes and rinsed twice; the brain sections are incubated in 0.5% PBST for 1 hour at room temperature, and then are blocked for 1 hour with a serum blocking solution on a shaker at room temperature, and the serum blocking solution is from the same source as a secondary antibody; the samples are treated on the shaker with a BrdU primary antibody overnight at 4° C., and the BrdU primary antibody is diluted with the blocking solution; the samples are incubated with the biotinylated secondary antibody IgG for 2 hours at room temperature; a C (ABC kit) solution is incubated at room temperature for 2 hours; finally, after 3 to 5 minutes of color development by the DAB kit, the samples are mounted by using a PVP mounting medium and then dried, and finally the experimental results are detected under a microscope.
The dose-effect relationships of different compounds is further tested according to the method of Example 36, and the compounds include WS-54 (E-4-isobutyrylamino-3′,4′-methylenedioxy-stilbene), WS-69 (E-4-Methylsulfonamino-3′,4′-methylenedioxy-stilbene), WS-70 (E-4-Benzamino-3′,4′-methylenedioxy-stilbene), and WS-74 (E-4-Cyclopropylformamino-3′,4′-methylenedioxy-stilbene).

[2] = tested on: HEK293; assay: In vitro cytotoxicity experiment (MTT, cell survival); format: cell-based; conditions: for cell survival rates: HEK293, 24 h, MTT, at all three doses, low, medium and high (100 μM; 500 μM; 1000 μM); for neuronal cytotoxicity / neurotoxicity (in words): HEK293, in vitro test, FIG. 3
Protocol: Example 35: In Vitro Cytotoxicity Experiment the Experimental Cell Line is HEK293
Cells are cultured in a 96-well plate at a cell concentration of 5000/well. After 24 hours of cell culture, the drug treatment is performed and the experiment is carried out on two groups: the control group is added with DMSO with the same concentration as that for the experimental group; in the experimental group, each compound is tested at three doses of low, medium and high doses (100 μM; 500 μM; 1000 μM), and five parallels are tested at each dose; in the blank group, a complete medium is added with a compound to be tested with the same concentration as that for the experimental group. Constant temperature incubation is carried out for 24 h in a CO2 incubator, MTT with a final concentration of 0.5 mg/mL is then added; 4 hours later, 200 μL of DMSO solution is added, and the absorbance is measured at 490 nm. The cell survival is calculated according to the absorbance; Survival %=(Average concentration−Blank concentration)/(Average control concentration−Blank concentration)*100%.
Reference is made to FIG. 3 which illustrates an in vitro cytotoxicity test chart of a novel stilbene derivative according to an example of embodiments of the present invention.

Row | Compound | BrdU labeling result [1] | neuronal cytotoxicity / neurotoxicity (in words) [2] | other results
1 | O=S(=O)(Nc1ccc(/C=C/c2ccc3c(c2)OCO3)cc1)c1ccccc1 [LSS-12, E-4-benzenesulfonylamino-3′,4′-methylenedioxy-stilbene] | positive | – | –
2 | O=S(=O)(Nc1ccc(/C=C/c2ccc3c(c2)OCO3)cc1)C1CC1 [LSS-13, E-4-cyclopropylsulfonylamino-3′,4′-methylenedioxy-stilbene] | positive | – | –
3 | O=C(Cc1ccccc1)Nc1ccc(/C=C/c2ccc3c(c2)OCO3)cc1 [LSS-16, E-4-phenylacetylamino-3′,4′-methylenedioxy-stilbene] | positive | – | –
4 | CN(C)S(=O)(=O)Nc1ccc(/C=C/c2ccc3c(c2)OCO3)cc1 [LSS-17, E-4-(N,N-dimethylamino-sulfonamino)-3′,4′-methylenedioxy-stilbene] | positive | – | –
5 | O=C(Nc1ccc(/C=C/c2ccc3c(c2)OCO3)cc1)c1ccccn1 [LSS-20, E-4-(2-pyridinecarboxamino)-3′,4′-methylenedioxy-stilbene] | positive | – | –
6 | Nc1ccc(/C=C/c2ccc3c(c2)OCO3)cc1 [WS-4, E-4-amino-3′,4′-methylenedioxy-stilbene, reference compound] | – | high neuronal cytotoxicity | cell survival rates [2]: less than 50%
7 | CC(=O)Oc1ccc(/C=C/c2ccc3c(c2)OCO3)cc1 [WS-10, E-4′-acetoxy-3,4-methylenedioxy-stilbene, reference compound] | – | – | neurogenesis activity (in words) [1]: no neurogenesis activity
8 | Oc1ccc(/C=C/c2ccc3c(c2)OCO3)cc1 [WS-11, E-4′-hydroxy-3,4-methylenedioxy-stilbene, reference compound] | – | – | neurogenesis activity (in words) [1]: no neurogenesis activity
9 | CC(=O)Nc1ccc(/C=C/C(=O)c2ccc3c(c2)OCO3)cc1 [WS-37, 4-acetylamino-3′,4′-methylenedioxychalcone, reference compound] | – | higher neuronal cytotoxicity | cell survival rates [2]: less than 10%
10 | COc1ccc(/C=C/c2ccc(NC(C)=O)cc2)cc1OC [WS-43, E-4′-acetylamino-3,4-dimethoxy-stilbene, reference compound] | – | – | neurogenesis activity (in words) [1]: no significant neurogenesis activity
11 | CC(=O)Nc1cccc(/C=C/c2ccc3c(c2)OCO3)c1 [WS-49, E-3-acetylamino-3′,4′-methylenedioxy-stilbene, reference compound] | – | higher neuronal cytotoxicity | cell survival rates [2]: ≤ 20%
12 | CC(C)C(=O)Nc1ccc(/C=C/c2ccc3c(c2)OCO3)cc1 [WS-54, E-4-isobutyrylamino-3′,4′-methylenedioxy-stilbene] | positive | low neurotoxicity | activity of proliferation promotion (BrdU positive) at low dose [1]: significant activities of proliferation promotion
13 | COc1cc(/C=C/c2ccc(OC(C)=O)cc2)cc(OC)c1 [WS-56, E-4-acetoxy-3′,5′-dimethoxy-stilbene, reference compound] | – | – | activity of proliferation promotion (BrdU positive) at low dose [1]: no significant activity
14 | COc1cc(/C=C/c2ccc(NC(C)=O)cc2)cc(OC)c1 [WS-61, E-4-acetylamino-3′,5′-dimethoxy-stilbene, reference compound] | – | reduce neurotoxicity | –
15 | CS(=O)(=O)Nc1ccc(/C=C/c2ccc3c(c2)OCO3)cc1 [WS-69, E-4-methanesulfonylamino-3′,4′-methylenedioxy-stilbene] | positive | low neurotoxicity | activity of proliferation promotion (BrdU positive) at low dose [1]: significant activities of proliferation promotion
16 | O=C(Nc1ccc(/C=C/c2ccc3c(c2)OCO3)cc1)c1ccccc1 [WS-70, E-4-benzoylamino-3′,4′-methylenedioxy-stilbene] | positive | low neurotoxicity; also recorded: greatly reduced | activity of proliferation promotion (BrdU positive) at low dose [1]: significant activities of proliferation promotion
17 | CC(=O)Nc1ccc(/C=C/c2ccc3c(c2)OCO3)cc1F [WS-71, E-3,4-methylenedioxy-3′-fluoro-4′-acetylamino-stilbene] | positive | low neurotoxicity | –
18 | O=C(Nc1ccc(/C=C/c2ccc3c(c2)OCO3)cc1)c1cccs1 [WS-73, E-4-(2-thienyl)formamino-3′,4′-methylenedioxy-stilbene] | positive | low neurotoxicity | –
19 | O=C(Nc1ccc(/C=C/c2ccc3c(c2)OCO3)cc1)C1CC1 [WS-74, E-4-cyclopropylcarboxamino-3′,4′-methylenedioxy-stilbene] | positive | low neurotoxicity; also recorded: greatly reduced | activity of proliferation promotion (BrdU positive) at low dose [1]: significant activities of proliferation promotion
20 | CC(=O)Nc1ccc(C#Cc2ccc3c(c2)OCO3)cc1 [WS-77, E-4′-acetamino-3,4-methylenedioxy-diphenylacetylene, reference compound] | positive | – | neurogenesis activity (in words) [1]: weak neurogenesis activity
21 | CC(=O)N(C)c1ccc(/C=C/c2ccc3c(c2)OCO3)cc1 [WS-80, E-4′-(N-acetyl-N-methylamino)-3,4-methylenedioxy-stilbene, reference compound] | negative | – | neurogenesis activity (in words) [1]: no significant neurogenesis activity
22 | O=C(Nc1ccc(/C=C/c2ccc3c(c2)OCO3)cc1)C1CCC1 [WS-83, E-4-cyclobutylformamino-3′,4′-methylenedioxy-stilbene] | positive | – | –
23 | E-4′-acetamino-3,4-methylenedioxy-diphenylethane [WS-35, reference compound] | – | – | neurogenesis activity (in words) [1]: no neurogenesis activity
24 | E-4′-tertamino-3,4-methylenedioxy-stilbene [WS-60, reference compound] | – | – | neurogenesis activity (in words) [1]: weak neurogenesis activity
